From patent US7256190B2, “Thiazole compounds useful as inhibitors of protein kinase” (Vertex Pharmaceuticals Incorporated, priority 2001, dated 2007) come the findings set out here.

Some results are limits rather than exact numbers.

Sequence of GSK3-β (AA 1-420) (P49841 whole entry, the tested form may be a part): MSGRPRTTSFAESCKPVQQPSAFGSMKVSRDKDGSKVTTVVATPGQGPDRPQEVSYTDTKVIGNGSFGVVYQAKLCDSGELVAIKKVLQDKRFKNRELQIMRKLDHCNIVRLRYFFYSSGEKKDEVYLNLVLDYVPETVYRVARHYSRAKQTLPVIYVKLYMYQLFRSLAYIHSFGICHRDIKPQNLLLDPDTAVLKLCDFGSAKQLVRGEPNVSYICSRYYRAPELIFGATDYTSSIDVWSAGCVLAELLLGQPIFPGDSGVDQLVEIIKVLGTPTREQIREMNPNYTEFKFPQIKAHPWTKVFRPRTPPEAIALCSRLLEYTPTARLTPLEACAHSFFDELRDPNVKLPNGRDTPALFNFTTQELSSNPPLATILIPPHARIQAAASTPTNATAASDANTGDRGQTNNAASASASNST

One assay addresses GSK3-β (AA 1-420) (Homo sapiens, UniProt P49841). The experiment in a line: GSK-3 inhibition assay (coupled enzyme system). The conditions noted are these: 10 μM ATP, 300 μM peptide, 60 nM GSK-3β, 30° C. In kind it is biochemical. Here is the method:
Compounds were screened for their ability to inhibit GSK3-β (AA 1-420) activity using a standard coupled enzyme system (Fox et al. (1998) Protein Sci. 7, 2249). Reactions were carried out in a solution containing 100 mM HEPES (pH 7.5), 10 mM MgCl2, 25 mM NaCl, 300 μM NADH, 1 mM DTT and 1.5% DMSO. Final substrate concentrations in the assay were 10 μM ATP (Sigma Chemicals, St Louis, Mo.) and 300 μM peptide (HSSPHQS(PO3H2)EDEEE, American Peptide, Sunnyvale, Calif.). Reactions were carried out at 30° C. and 60 nM GSK-3β. Final concentrations of the components of the coupled enzyme system were 2.5 mM phosphoenolpyruvate, 300μM NADH, 30 μg/ml pyruvate kinase and 10 μg/ml lactate dehydrogenase.
An assay stock buffer solution was prepared containing all of the reagents listed above with the exception of ATP and the test compound of interest. 59 μl of the test reaction was placed in a 96 well ½-diameter plate (Corning, Corning, N.Y.) then treated with 1 μl of a 2 mM DMSO stock containing the test compound (final compound concentration 30 μM). The plate was incubated for ˜10 minutes at 30° C. then the reaction initiated by addition of 7 μl of ATP (final concentration 10 μM). Rates of reaction were obtained using a Molecular Devices Spectramax plate reader (Sunnyvale, Calif.) over a 5 minute read time at 30° C.
(§1) The compound numbers correspond to the compound numbers in Table 1.
Molecule `c1ccc(Oc2ccc(-c3cccc(Nc4nccc(-c5nccs5)n4)c3)cc2)cc1` [Compound I-9] yielded an inhibitory constant (Ki) of less than 100 nM. `Clc1cccc(-c2cccc(Nc3nccc(-c4nccs4)n3)c2)c1Cl` [Compound I-24]: the inhibition constant Ki was less than 100 nM. Take `COc1ccc(-c2ccccc2)cc1Nc1ncc(C)c(-c2nccs2)n1` [Compound I-93]: the inhibition constant Ki is greater than 1000 nM. `COc1ccc(-c2cccc(Nc3nccc(-c4nccs4)n3)c2)c(OC)c1OC` [Compound I-12] had a Ki of less than 100 nM. `Fc1ccc(-c2cccc(Nc3nccc(-c4nccs4)n3)c2)c(F)c1` [Compound I-18] yielded an inhibitory constant (Ki) of less than 100 nM. The same measure, in the same setting: to `Clc1cccc(Nc2nccc(-c3nccs3)n2)n1` [Compound I-28] belongs less than 100 nM; to `COc1ccc(Nc2nccc(-c3nccs3)n2)cc1Oc1cccc(Cl)c1` [Compound I-108], 100 to 1000 nM; to `COc1ccc(Oc2ccccc2)cc1Nc1ncc(C)c(-c2nccs2)n1` [Compound I-117], greater than 1000 nM. Consider `Oc1ccc(-c2cccc(Nc3nccc(-c4nccs4)n3)c2)cc1` [Compound I-66], for which the Ki was less than 100 nM. The molecule `COc1ccc(OC)c(-c2cccc(Nc3nccc(-c4nccs4)n3)c2)c1` [Compound I-54] yielded an inhibitory constant (Ki) of less than 100 nM. Consider `Cc1cnc(Nc2cccc(-c3cccc(N)c3)c2)nc1-c1nccs1` [Compound I-90], for which the inhibition constant Ki was less than 100 nM. With `COc1ccc(Nc2nccc(-c3nccs3)n2)cc1Oc1ccc(Cl)cc1` [Compound I-111], the inhibition constant (Ki) is less than 100 nM. `N#Cc1ccc(-c2cccc(Nc3nccc(-c4nccs4)n3)c2)cc1` [Compound I-48] showed a Ki of less than 100 nM.

`Fc1ccccc1COc1cccc(Nc2nccc(-c3nccs3)n2)c1` [Compound I-41] registered a Ki of less than 100 nM. In turn, `COc1cc(O)ccc1-c1cccc(Nc2nccc(-c3nccs3)n2)c1` [Compound I-75] registered an inhibition constant (Ki) of less than 100 nM. In turn, `COc1cc(F)cc(-c2cccc(Nc3nccc(-c4nccs4)n3)c2)c1` [Compound I-15] had an inhibition constant Ki of less than 100 nM. Consider `CSc1ccc(-c2cccc(Nc3nccc(-c4nccs4)n3)c2)cc1` [Compound I-60], for which the inhibition constant (Ki) was less than 100 nM. The molecule `Cc1cnc(Nc2cccc(-c3ccc(O)cc3)c2)nc1-c1nccs1` [Compound I-84] yielded a Ki of less than 100 nM.

Molecule `COc1cccc(OC)c1-c1cccc(Nc2nccc(-c3nccs3)n2)c1` [Compound I-51] came in with a Ki of 100 to 1000 nM. As to `Cc1ccc(C)c(-c2cccc(Nc3nccc(-c4nccs4)n3)c2)c1` [Compound I-39], the Ki was less than 100 nM. As to `Fc1ccc(COc2cccc(Nc3nccc(-c4nccs4)n3)c2)cc1F` [Compound I-85], the inhibition constant Ki was less than 100 nM. Molecule `COc1ccc(Oc2ccccc2)cc1Nc1nccc(-c2nccs2)n1` [Compound I-114] displayed a Ki greater than 1000 nM.

As to `Cc1cnc(Nc2cccc(-c3cccnc3)c2)nc1-c1nccs1` [Compound I-87], the inhibitory constant (Ki) is less than 100 nM. In turn, `O=[N+]([O-])c1ccc(Nc2nccc(-c3nccs3)n2)cc1` [Compound I-40] displayed a Ki of less than 100 nM. On the same count and under the same terms, for `Cc1cnc(Nc2cccc(C(F)(F)F)c2)nc1-c1nccs1` [Compound I-99] the value was less than 100 nM. Take `CCOc1ccc(-c2cccc(Nc3nccc(-c4nccs4)n3)c2)cc1` [Compound I-33]: the inhibitory constant (Ki) is less than 100 nM. The same measure, in the same setting: for `FC(F)(F)c1ccccc1-c1cccc(Nc2nccc(-c3nccs3)n2)c1` [Compound I-27] the value was less than 100 nM; for `Nc1cccc(-c2cccc(Nc3nccc(-c4nccs4)n3)c2)c1` [Compound I-57], less than 100 nM; for `CN(C)c1ccc(-c2cccc(Nc3nccc(-c4nccs4)n3)c2)cc1` [Compound I-81], less than 100 nM.

In turn, `N#Cc1cccc(COc2cccc(Nc3nccc(-c4nccs4)n3)c2)c1` [Compound I-79] returned an inhibition constant (Ki) of less than 100 nM. With `Cc1ccccc1-c1cccc(Nc2nccc(-c3nccs3)n2)c1` [Compound I-3], the inhibition constant Ki was less than 100 nM. As for `c1ccc(COc2ccc(Nc3nccc(-c4nccs4)n3)cc2)cc1` [Compound I-10], the inhibitory constant (Ki) is greater than 1000 nM. For `CCOc1cccc(-c2cccc(Nc3nccc(-c4nccs4)n3)c2)c1` [Compound I-42], the inhibition constant Ki was less than 100 nM.

For `FC(F)(F)c1cccc(-c2cccc(Nc3nccc(-c4nccs4)n3)c2)c1` [Compound I-30], the Ki is less than 100 nM. In turn, `CCOc1ccccc1-c1cccc(Nc2nccc(-c3nccs3)n2)c1` [Compound I-36] registered an inhibition constant Ki of 100 to 1000 nM.

For the molecule `Clc1ccc(Cl)c(-c2cccc(Nc3nccc(-c4nccs4)n3)c2)c1` [Compound I-21], the inhibition constant Ki is greater than 1000 nM. Consider `c1ccc(COc2cccc(Nc3nccc(-c4nccs4)n3)c2)nc1` [Compound I-20], for which the Ki is less than 100 nM. In turn, `Oc1ccccc1-c1cccc(Nc2nccc(-c3nccs3)n2)c1` [Compound I-69] registered a Ki of less than 100 nM. As to `COc1ccc(Nc2nccc(-c3nccs3)n2)cc1Oc1cccc(F)c1` [Compound I-105], the Ki was less than 100 nM. The molecule `COc1ccc(-c2ccccc2)cc1Nc1nccc(-c2nccs2)n1` [Compound I-96] registered a Ki greater than 1000 nM. `Fc1cc(F)cc(COc2cccc(Nc3nccc(-c4nccs4)n3)c2)c1` [Compound I-103] returned a Ki of less than 100 nM. As to `Fc1ccccc1-c1cccc(Nc2nccc(-c3nccs3)n2)c1` [Compound I-6], the Ki is less than 100 nM. With `c1cc(Nc2nccc(-c3nccs3)n2)cc(-c2ccc3[nH]ccc3c2)c1` [Compound I-78], the inhibition constant Ki is less than 100 nM. For `CS(=O)(=O)c1ccc(-c2cccc(Nc3nccc(-c4nccs4)n3)c2)cc1` [Compound I-45], the Ki is less than 100 nM. In the case of `c1cncc(-c2cccc(Nc3nccc(-c4nccs4)n3)c2)c1` [Compound I-63], the inhibition constant Ki was less than 100 nM. Turning to `Fc1cccc(COc2cccc(Nc3nccc(-c4nccs4)n3)c2)c1` [Compound I-100], the inhibitory constant (Ki) was less than 100 nM.

As to `Oc1cccc(-c2cccc(Nc3nccc(-c4nccs4)n3)c2)c1` [Compound I-72], the Ki was less than 100 nM.

The target of a further assay is T1, Aurora2 (Homo sapiens, UniProt O14965).
T1 sequence (O14965 1-403): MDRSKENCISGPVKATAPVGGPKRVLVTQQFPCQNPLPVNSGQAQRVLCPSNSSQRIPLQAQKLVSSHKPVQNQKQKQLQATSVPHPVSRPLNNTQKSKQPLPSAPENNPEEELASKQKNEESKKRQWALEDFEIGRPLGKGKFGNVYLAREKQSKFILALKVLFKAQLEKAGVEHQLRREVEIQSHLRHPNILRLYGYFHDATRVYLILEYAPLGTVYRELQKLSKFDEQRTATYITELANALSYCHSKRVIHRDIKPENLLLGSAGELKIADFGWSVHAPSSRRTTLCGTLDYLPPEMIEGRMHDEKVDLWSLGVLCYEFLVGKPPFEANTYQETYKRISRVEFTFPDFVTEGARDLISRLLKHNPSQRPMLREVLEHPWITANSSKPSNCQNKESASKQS
As to the kind of experiment: Aurora2 inhibition assay (coupled enzyme assay). In kind it is biochemical. The conditions noted are these: 800 μM peptide LRRASLG, 70 nM Aurora2, 30° C. Here is the method: Compounds are screened in the following manner for their ability to inhibit Aurora2 using a standard coupled enzyme assay (Fox et al (1998). Protein Sci 7, 2246). To an assay stock buffer solution containing 0.1M HEPES 7.5, 10 mM MgCl2, 1 mM DTT, 25 mM NaCl, 2.5 mM prosphoenolpyruvate, […], […] pyruvate kinase, […] lactate dehydrogenase, […], and 800 μM peptide (LRRASLG, American Peptide, Sunnyvale, Calif.) is added a DMSO solution of a compound of the present invention to a final concentration of 30 μM. The resulting mixture is incubated at 30° C. for 10 minutes. The reaction was initiated by the addition of 10 μL of Aurora2 stock solution to give a final concentration of 70 nM in the assay. The rates of reaction are obtained by monitoring absorbance at 340 nm over a 5 minute read time at 30° C. using a BioRad Ultramark plate reader (Hercules, Calif.). The IC50 values are determined from the rate data as a function of inhibitor concentration.
as §1
`Clc1cccc(Nc2nccc(-c3nccs3)n2)n1` [Compound I-28] came in with a 50% inhibitory concentration (IC50) greater than 2000 nM.

Consider `c1cncc(COc2cccc(N(Cc3cccnc3)c3nccc(-c4nccs4)n3)c2)c1` [Compound I-26], for which the IC50 was less than 500 nM. Still for that read-out and setting: to `Fc1ccccc1COc1cccc(Nc2nccc(-c3nccs3)n2)c1` [Compound I-41] belongs greater than 2000 nM; to `Fc1ccc(COc2cccc(Nc3nccc(-c4nccs4)n3)c2)cc1F` [Compound I-85], greater than 2000 nM. Take `COc1ccc(Oc2ccccc2)cc1Nc1nccc(-c2nccs2)n1` [Compound I-114]: the IC50 fell in the range of 500 to 2000 nM. On the same count and under the same terms, to `O=[N+]([O-])c1ccc(Nc2nccc(-c3nccs3)n2)cc1` [Compound I-40] belongs greater than 2000 nM; to `COc1ccc(Nc2nccc(-c3nccs3)n2)cc1` [Compound I-70], 500 to 2000 nM. With `O=[N+]([O-])c1cccc(Nc2cccc(Nc3nccc(-c4nccs4)n3)c2)c1` [Compound I-97], the IC50 is greater than 2000 nM.

As for `N#Cc1cccc(COc2cccc(Nc3nccc(-c4nccs4)n3)c2)c1` [Compound I-79], the IC50 was greater than 2000 nM. In the case of `c1ccc(COc2ccc(Nc3nccc(-c4nccs4)n3)cc2)cc1` [Compound I-10], the IC50 is greater than 2000 nM.

`c1ccc(COc2cccc(Nc3nccc(-c4nccs4)n3)c2)nc1` [Compound I-20] displayed a 50% inhibitory concentration (IC50) of less than 500 nM. In turn, `Fc1cc(F)cc(COc2cccc(Nc3nccc(-c4nccs4)n3)c2)c1` [Compound I-103] returned a concentration for half-maximal inhibition (IC50) greater than 2000 nM. As for `c1ccc(Oc2ccc(Nc3nccc(-c4nccs4)n3)cc2)cc1` [Compound I-13], the IC50 is greater than 2000 nM. `Fc1cccc(COc2cccc(Nc3nccc(-c4nccs4)n3)c2)c1` [Compound I-100] came in with a 50% inhibitory concentration (IC50) greater than 2000 nM.

The next assay has as its target Syk (Homo sapiens, UniProt P43405). The experiment in a line: Syk inhibition assay (coupled enzyme assay). The following applies: 200 μM ATP, 4 μM poly Gly-Tyr peptide, 30° C. It counts as biochemical. Here is the method: Reactions were carried out in 100 mM HEPES pH 7.5, 10 mM MgCl2, 25 mM NaCl, 1 mM DTT and 1.5% DMSO. Final substrate .concentrations in the assay were 200 μM ATP (Sigmachemical Co.) and 4 μM poly Gly-Tyr peptide (Sigma Chemical Co.). Assays were carried out at 30° C. and 200 nM Syk. Final concentrations of the components of the coupled enzyme system were 2.5 mM phosphoenolpyruvate, 300 μM NADH, 30 μg/ml pyruvate kinase and 10 μg/ml lactate dehydrogenase.
An assay stock buffer solution was prepared containing all of the reagents listed above, with the exception of Syk, DTT and the test compound of interest. 56 μl of the test reaction was placed in a 96 well plate followed by the addition of 1 μl of 2 mM DMSO stock containing the test compound (final compound concentration 30 μM). […] Rates of reaction were obtained using a BioRad Ultramark plate reader (Hercules, Calif.) over a 5 minute read time at 30° C.
as §1
Consider `c1ccc(Oc2cccc(Nc3nccc(-c4nccs4)n3)c2)nc1` [Compound I-53], for which the IC50 lay in the range of 500 to 2000 nM.

The term Ki denotes the dissociation constant of the complex between target and ligand, obtained from inhibition or displacement. Low values mean higher affinity, high ones lower affinity. By IC50 is commonly meant the concentration that gives 50% inhibition.
